In patent publication US20230391742A1, “SMALL MOLECULE COMPOUND AND USE AND COMPOSITION THEREOF” (SOOCHOW UNIVERSITY, priority 2021, published 2023):

Key:
NAC1 protein dimer = target: T1, NAC1 protein dimer (Homo sapiens, UniProt Q96RE7); assay: Dimer formation of NAC1 protein detected by immunoprecipitation and immunoblotting; assay type: biochemical; conditions: FIG. 1
T1 sequence (Q96RE7 1-527): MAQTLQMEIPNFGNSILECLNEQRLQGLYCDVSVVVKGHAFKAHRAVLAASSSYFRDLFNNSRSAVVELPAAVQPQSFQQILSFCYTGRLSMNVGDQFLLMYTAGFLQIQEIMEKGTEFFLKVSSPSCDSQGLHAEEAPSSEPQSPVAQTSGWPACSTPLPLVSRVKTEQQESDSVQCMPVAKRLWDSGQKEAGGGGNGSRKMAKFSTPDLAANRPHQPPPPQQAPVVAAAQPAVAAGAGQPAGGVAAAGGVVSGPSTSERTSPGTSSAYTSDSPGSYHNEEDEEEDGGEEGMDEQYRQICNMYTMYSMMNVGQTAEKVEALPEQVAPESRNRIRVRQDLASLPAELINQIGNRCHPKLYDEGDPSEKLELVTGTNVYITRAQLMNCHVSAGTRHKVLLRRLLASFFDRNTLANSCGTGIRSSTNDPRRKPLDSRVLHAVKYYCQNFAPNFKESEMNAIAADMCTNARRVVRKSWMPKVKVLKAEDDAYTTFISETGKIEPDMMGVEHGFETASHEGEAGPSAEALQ
Source text: For the selected NAI-008 (self-synthesized), the dimer formation of the target NAC1 protein by small molecule compounds was detected by immunoprecipitation technology and immunoblotting.

SKOV3 cells [1] = assay: MTT cell growth assay in SKOV3 cells; assay type: cell-based, human
Experimental: (§1) SKOV3 cell line: purchased from ATCC, an ovarian cancer tumor cell line that positively expresses NAC1.
(§2) The culture method of SKOV3 cell line was as follows: the cells were inoculated in DMEM (InVitrogen) medium containing 10% calf serum, and placed in a CO2 incubator with a volume fraction of 5% at 37° C., cultivated for two weeks.
This embodiment used a conventional MTT method. The specific method included following:
SKOV3 cells were plated overnight in 96-well plates at a density of 3000 cells/well. […] After 48 hours, 10 μl of MTT (5 mg/ml) was added to each well, and the supernatant was discarded after incubation at 37° C. for 4 hours. After dissolving the purple crystal with 150 μl of dimethyl sulfoxide, the plates were placed in a microplate reader (Bio-Rad Company) to detect the absorbance at 570 nm.

SKOV3 cells [2] = assay: Clonal colony formation experiment in SKOV3 cells; assay type: cell-based, human; conditions: NAI-008 20 μM combined with cisplatin or doxorubicin (0-40 μM), SKOV3, FIG. 2B
Experimental: as §1, §2
In this example, conventional clonal colony formation experiments were used. The specific method included the following:
SKOV3 cells were treated according to the experimental requirements for 24-48 hours, digested with trypsin, and the cell suspension was repeatedly pipetted to make the cells fully dispersed. The percentage of single cells were above 95%, and counted on a hemocytometer. Based on a concentration of 2000 cells per dish, 2 ml of cell suspension was inoculated into the culture dish, so that the cells were evenly dispersed. Culturing in 37° C., 5% CO2 for 7 to 14 days, with fresh medium from time to time. Observation under an inverted microscope. When macroscopic colonies appeared in the petri dish, the culture was terminated, the medium was discarded, and PBS was used to rinse twice. Crystal violet staining for 20 minutes. The results were analyzed after 2-3 washes with PBS.

SKOV3 cells [3] = assay: Immunoblot of cleaved PARP (apoptosis) in SKOV3 cells; assay type: cell-based, human
Experimental: The ovarian cancer cell line SKOV3 cells were plated into 24-well plates at a density of 20,000 cells/well, and after 16-24 hours of incubation, NAI-008 was added to a final concentration of 20 μM. After 4 hours, additional cisplatin or doxorubicin was added to a final concentration of 20 μM. After 48 hours, the expression of PARP cleaved by apoptotic protein was detected by immunoblotting.

In the case of `CC(C)(C)c1ccc(OCC(=O)NCC(=O)c2ccc(OC(=O)c3ccc4c(c3)OCO4)cc2)cc1` [NAI-008], the “formation of NAC1 protein dimer” value (NAC1 protein dimer) is reported as “inhibits the formation of NAC1 protein dimer”, the “toxic effects on cells, single application” value (SKOV3 cells [1]; NAI-008 alone, SKOV3, FIGS. 2A and 2B) is reported as “did not cause significant toxic effects on cells” and the “enhancement of cell growth inhibition by cisplatin and doxorubicin (MTT)” value (SKOV3 cells [1]; NAI-008 at final concentration 20 uM combined with cisplatin or doxorubicin (0-40 μM), SKOV3, 48 hours, FIG. 2A) is reported as “significantly enhances the inhibition of cell growth and proliferation by cisplatin and doxorubicin”. For the same compound, the “enhancement of inhibitory effect of cisplatin on proliferation of SKOV3 (MTT screening)” value (SKOV3 cells [1]; second-round screening, combination with cisplatin, SKOV3) was “strongly enhances the inhibitory effect of cisplatin on the proliferation of ovarian cancer cell line SKOV3”, the “enhancement of cell proliferation inhibition by cisplatin and doxorubicin (colony formation)” value (SKOV3 cells [2]) was “significantly enhances the inhibition of cell growth and proliferation by cisplatin and doxorubicin” and the “expression of apoptotic proteins (cleaved PARP) versus cisplatin or doxorubicin alone” value (SKOV3 cells [3]; NAI-008 20 μM plus cisplatin or doxorubicin 20 μM, SKOV3, 48 hours, FIG. 2C) was “significantly higher”. The “apoptosis, compound alone” value (SKOV3 cells [3]; NAI-008 alone, SKOV3) was “did not cause significant apoptosis”.
